Laboratory results reported in ChEMBL document CHEMBL1201862, “PubChem BioAssay data set” (2004).
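Protocol summary: plate cells (96-well), add compound at 5 concentrations, incubate 48 h, interpolate endpoints linearly. GI50 marks 50% less growth.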 Active and inactive are the calls of the source. Cut-off read from the data, not from the text of the source: active = GI50 up to about 1.1 µM and inactive = higher.

Key:
Assay in all cases: NCI-60 cell line screen, 48 h
[1] = test system: CCRF-CEM
[2] = test system: OVCAR-5
[3] = test system: SNB-19
[4] = test system: SK-MEL-2
[5] = test system: SNB-75
[6] = test system: UO-31
[7] = test system: HOP-92
[8] = test system: IGROV-1
[9] = test system: K562
[10] = test system: HCT-116
[11] = test system: RXF 393
[12] = test system: HT-29
[13] = test system: NCI-H522
[14] = test system: SW-620
[15] = test system: HOP-62
[16] = test system: CAKI-1
[17] = test system: LOX IMVI
[18] = test system: NCI-H460
[19] = test system: SK-MEL-28
[20] = test system: COLO 205

Row | Structure (SMILES) | GI50 [1] | GI50 [2] | GI50 [3] | GI50 [4] | GI50 [5] | GI50 [6] | GI50 [7] | GI50 [8] | GI50 [9] | GI50 [10] | GI50 [11] | GI50 [12] | GI50 [13] | GI50 [14] | GI50 [15] | GI50 [16] | GI50 [17] | GI50 [18] | GI50 [19] | GI50 [20]
1 | O=C(O)C1CCCCN1c1ccccc1[N+](=O)[O-] (configuration not stated) | > 100 µM (inactive) | > 100 µM (inactive) | > 100 µM (inactive) | > 100 µM (inactive) | > 100 µM (inactive) | > 100 µM (inactive) | > 100 µM (inactive) | > 100 µM (inactive) | > 100 µM (inactive) | > 100 µM (inactive) | > 100 µM (inactive) | > 100 µM (inactive) | > 100 µM (inactive) | > 100 µM (inactive) | > 100 µM (inactive) | > 100 µM (inactive) | > 100 µM (inactive) | > 100 µM (inactive) |  | 
2 | CCOC(=O)NC(Nc1ncccn1)(C(=O)OCC)C(F)(F)F (configuration not stated) | > 100 µM (inactive) | > 100 µM (inactive) | > 100 µM (inactive) | > 100 µM (inactive) | > 100 µM (inactive) | > 100 µM (inactive) | > 100 µM (inactive) | > 100 µM (inactive) | > 100 µM (inactive) | > 100 µM (inactive) | > 100 µM (inactive) | > 100 µM (inactive) | > 100 µM (inactive) | > 100 µM (inactive) |  | > 100 µM (inactive) | > 100 µM (inactive) | > 100 µM (inactive) | > 100 µM (inactive) | > 100 µM (inactive)
3 | O=C1Sc2sc(=S)sc2SC1c1ccccc1 (configuration not stated) | 33 µM (inactive) | > 100 µM (inactive) | > 73.1 µM (inactive) | > 65 µM (inactive) | > 50.2 µM (inactive) | 39 µM (inactive) | 36.6 µM (inactive) | > 100 µM (inactive) | 32.7 µM (inactive) | > 59 µM (inactive) | 28.4 µM (inactive) | 40.8 µM (inactive) | 14.2 µM (inactive) | 21.1 µM (inactive) | > 100 µM (inactive) | 1 µM (active) | 30.8 µM (inactive) | 80.7 µM (inactive) | > 45.6 µM (inactive) | 37.2 µM (inactive)
4 | CC(=O)OC1CCC2(C)C(CCC3C2CCC2(C)C(c4ccc(=O)oc4)C(OC(C)=O)CC32O)C1 (configuration not stated) | 0.0151 µM (active) | 0.0397 µM (active) | 0.0293 µM (active) | 0.0258 µM (active) | 0.0183 µM (active) | 0.0156 µM (active) | 0.0195 µM (active) | 0.0173 µM (active) | 0.0161 µM (active) | 0.0157 µM (active) | 0.0125 µM (active) | 0.0263 µM (active) | 0.016 µM (active) | 0.0148 µM (active) | 0.015 µM (active) | 0.0151 µM (active) | 0.0176 µM (active) | 0.0147 µM (active) | 0.0277 µM (active) | 0.0288 µM (active)
5 | OC[C@H]1O[C@@H](n2cnc3cncnc32)[C@H](O)[C@@H]1O [NEBULARINE] | 1.32 µM (inactive) | 1.4 µM (inactive) | 1.45 µM (inactive) | 1.67 µM (inactive) | 0.628 µM (active) | 1.28 µM (inactive) | 0.656 µM (active) | 0.64 µM (active) | 0.679 µM (active) | 0.321 µM (active) | 1.31 µM (inactive) | 0.377 µM (active) | 2.1 µM (inactive) | 0.462 µM (active) | 2.45 µM (inactive) | 0.423 µM (active) | 0.977 µM (active) | 0.593 µM (active) | 1.39 µM (inactive) | 0.417 µM (active)
